Test results: ChEMBL document CHEMBL3045845, “Predicting 3H-1,2,4-triazolinones as angiotensin II receptor antagonists: 2D and 3D QSAR by kNN-molecular field analysis approach” (Med Chem Res, 2012)

Biological target: T1, Angiotensin II receptor (AT-1) type-1 (Rattus norvegicus, UniProt P29089+P25095)
T1 sequence (P29089 whole entry): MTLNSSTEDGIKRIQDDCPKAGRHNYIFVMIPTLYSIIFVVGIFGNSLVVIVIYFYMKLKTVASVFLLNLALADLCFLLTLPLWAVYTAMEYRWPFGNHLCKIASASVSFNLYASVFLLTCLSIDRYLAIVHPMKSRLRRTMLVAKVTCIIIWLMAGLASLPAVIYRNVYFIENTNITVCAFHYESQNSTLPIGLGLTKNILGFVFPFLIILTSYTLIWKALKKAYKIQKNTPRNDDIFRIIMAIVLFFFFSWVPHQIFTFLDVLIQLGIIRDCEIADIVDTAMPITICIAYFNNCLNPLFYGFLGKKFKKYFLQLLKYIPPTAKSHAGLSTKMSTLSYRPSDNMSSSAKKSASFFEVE
T1 sequence (P25095 whole entry): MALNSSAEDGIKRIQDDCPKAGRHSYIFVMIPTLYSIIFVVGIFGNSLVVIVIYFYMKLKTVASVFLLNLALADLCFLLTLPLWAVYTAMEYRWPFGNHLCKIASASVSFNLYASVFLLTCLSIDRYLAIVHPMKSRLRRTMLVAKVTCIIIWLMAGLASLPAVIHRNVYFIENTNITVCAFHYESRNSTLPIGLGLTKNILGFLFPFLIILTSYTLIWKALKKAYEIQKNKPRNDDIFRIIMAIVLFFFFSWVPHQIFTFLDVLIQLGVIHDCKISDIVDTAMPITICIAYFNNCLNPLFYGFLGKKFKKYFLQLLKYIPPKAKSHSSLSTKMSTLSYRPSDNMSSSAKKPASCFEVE
Experiment: Displacement of [125I]-angiotensin 2 from angiotensin AT1 receptor in Rattus norvegicus (rat) uterine membranes

Row | SMILES | IC50 [nM] | pIC50
1 | CCCCc1nn(CC(OCC)c2ccccc2)c(=O)n1Cc1ccc(-c2ccccc2-c2nn[nH]n2)cc1 (stereo unspecified) | 15 | 7.824
2 | CCCCc1nn(C(CC(=O)OCC)C(=O)c2ccccc2)c(=O)n1Cc1ccc(-c2ccccc2-c2nn[nH]n2)cc1 (stereo unspecified) | 36 | 7.444
3 | CCCCc1nn(CC(=O)C23CC4CC(CC(C4)C2)C3)c(=O)n1Cc1ccc(-c2ccccc2-c2nn[nH]n2)cc1 | 25 | 7.602
4 | CCCCc1nn(C(C)CC)c(=O)n1Cc1ccc(-c2ccccc2-c2nn[nH]n2)cc1 (stereo unspecified) | 10 | 8
5 | CCCCc1nn(CCCCC(=O)O)c(=O)n1Cc1ccc(-c2ccccc2-c2nn[nH]n2)cc1 | 12 | 7.921
6 | CCCCc1nn(CCC)c(=O)n1Cc1ccc(-c2ccccc2-c2nn[nH]n2)cc1 | 15 | 7.824
7 | CCCCc1nn(CC(OCc2ccccc2)c2ccccc2)c(=O)n1Cc1ccc(-c2ccccc2-c2nn[nH]n2)cc1 (stereo unspecified) | 280 | 6.553
8 | CCCCc1nn(CCC(C)CC(C)(C)C)c(=O)n1Cc1ccc(-c2ccccc2-c2nn[nH]n2)cc1 (stereo unspecified) | 35 | 7.456
9 | CCCCc1nn(Cc2ccc3ccccc3c2)c(=O)n1Cc1ccc(-c2ccccc2-c2nn[nH]n2)cc1 | 280 | 6.553
10 | CCCCc1nn(CC(O)c2ccccc2)c(=O)n1Cc1ccc(-c2ccccc2-c2nn[nH]n2)cc1 (stereo unspecified) | 3.6 | 8.444
11 | CCCCc1nn(CCCC)c(=O)n1Cc1ccc(-c2ccccc2C(=O)O)cc1 | 101 | 6.996
12 | CCCCc1nn(CC(=O)c2cc(OC)ccc2OC)c(=O)n1Cc1ccc(-c2ccccc2-c2nn[nH]n2)cc1 | 21 | 7.678
13 | CCCCc1nn(CCCCCC(=O)OCC)c(=O)n1Cc1ccc(-c2ccccc2-c2nn[nH]n2)cc1 | 9.8 | 8.009
14 | CCCCc1nn(CC(=O)OC(C)(C)C)c(=O)n1Cc1ccc(-c2ccccc2-c2nn[nH]n2)cc1 | 16 | 7.796
15 | CCCCc1nn(CC(OCCC)c2ccccc2)c(=O)n1Cc1ccc(-c2ccccc2-c2nn[nH]n2)cc1 (stereo unspecified) | 45 | 7.347
16 | CCCCc1nn(C(Cc2ccccc2)C(=O)c2ccccc2)c(=O)n1Cc1ccc(-c2ccccc2-c2nn[nH]n2)cc1 (stereo unspecified) | 5800 | 5.237
17 | CCCCc1nn(CCC2CCCCC2)c(=O)n1Cc1ccc(-c2ccccc2-c2nn[nH]n2)cc1 | 18 | 7.745
18 | CCCCc1nn(C(C)(C)C(=O)c2ccccc2)c(=O)n1Cc1ccc(-c2ccccc2-c2nn[nH]n2)cc1 | 43 | 7.367
19 | CCCCc1nn(CC(OCC(=O)O)c2ccccc2)c(=O)n1Cc1ccc(-c2ccccc2-c2nn[nH]n2)cc1 (stereo unspecified) | 30 | 7.523

Continued, values first:

Row | IC50 [nM] | pIC50 | SMILES
20 | 22 | 7.658 | CCCCc1nn(CC(O)c2cc(OC)ccc2OC)c(=O)n1Cc1ccc(-c2ccccc2-c2nn[nH]n2)cc1 (stereo unspecified)
21 | 42 | 7.377 | CCCCc1nnc(O)n1Cc1ccc(-c2ccccc2-c2nn[nH]n2)cc1
22 | 18 | 7.745 | CCCCc1nn(CCCc2ccccc2)c(=O)n1Cc1ccc(-c2ccccc2-c2nn[nH]n2)cc1
23 | 8.7 | 8.06 | CCCCCCn1nc(CCCC)n(Cc2ccc(-c3ccccc3-c3nn[nH]n3)cc2)c1=O
24 | 1500 | 5.824 | CCCCc1nnc(O)n1Cc1ccc(-c2ccccc2C(=O)O)cc1
25 | 12 | 7.921 | CCCCc1nn(CC(OC)c2ccccc2)c(=O)n1Cc1ccc(-c2ccccc2-c2nn[nH]n2)cc1 (stereo unspecified)
26 | 17 | 7.77 | CCCCc1nn(CCCCCC(=O)O)c(=O)n1Cc1ccc(-c2ccccc2-c2nn[nH]n2)cc1
27 | 16 | 7.796 | CCCCc1nn(Cc2ccccc2)c(=O)n1Cc1ccc(-c2ccccc2-c2nn[nH]n2)cc1
28 | 91 | 7.041 | CCCCc1nn(CC(=O)O)c(=O)n1Cc1ccc(-c2ccccc2-c2nn[nH]n2)cc1
29 | 9 | 8.046 | CCCCc1nn(CC(=O)OCC)c(=O)n1Cc1ccc(-c2ccccc2-c2nn[nH]n2)cc1
30 | 180 | 6.745 | CCCCc1nn(CC(OCC(=O)OCC)c2ccccc2)c(=O)n1Cc1ccc(-c2ccccc2-c2nn[nH]n2)cc1 (stereo unspecified)
31 | 3.1 | 8.509 | CCCCc1nn(CCc2ccccc2)c(=O)n1Cc1ccc(-c2ccccc2-c2nn[nH]n2)cc1
32 | 5.6 | 8.252 | CCCCCn1nc(CCCC)n(Cc2ccc(-c3ccccc3-c3nn[nH]n3)cc2)c1=O
33 | 170 | 6.77 | CCCCCCCCn1nc(CCCC)n(Cc2ccc(-c3ccccc3-c3nn[nH]n3)cc2)c1=O
